Entries after “also recorded” stand apart in the source; their conditions may differ. Read-outs that look alike come from different tables or passages of the source.
Tests used:
AQ biosynthesis = system: AQ biosynthesis; design: method as in PMID 17941706; details: cited from earlier work
PqsR [1] = target: T1, PqsR (Pseudomonas aeruginosa, UniProt Q9I4X0); assay: cell-based; design: assayed for their agonist and antagonist activities in a whole P. aeruginosa bacterial cell assay; endogenous in cells; host or cells: P. aeruginosa PAO1 wild type, ΔpqsA or ΔpqsAH strains carrying a chromosomal (mini)CTX::pqsA'-lux fusion; details: for Agonist activity on PqsR (in words): pqsA'-lux reporter
T1 sequence (Q9I4X0 1-332): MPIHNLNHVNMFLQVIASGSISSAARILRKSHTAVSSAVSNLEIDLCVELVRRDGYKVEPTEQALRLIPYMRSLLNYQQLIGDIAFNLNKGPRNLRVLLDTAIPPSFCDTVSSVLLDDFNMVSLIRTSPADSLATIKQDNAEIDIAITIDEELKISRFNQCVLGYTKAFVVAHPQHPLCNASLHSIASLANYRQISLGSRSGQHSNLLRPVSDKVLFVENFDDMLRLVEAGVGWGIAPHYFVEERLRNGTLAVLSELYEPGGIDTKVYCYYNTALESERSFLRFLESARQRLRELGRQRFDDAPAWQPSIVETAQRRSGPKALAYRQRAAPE

PqsR [2] = target: T1, PqsR; assay: cell-based; design: assayed for their agonist and antagonist activities in a whole P. aeruginosa bacterial cell assay; endogenous in cells; host or cells: P. aeruginosa PAO1 wild type, ΔpqsA or ΔpqsAH strains carrying a chromosomal (mini)CTX::pqsA'-lux fusion; details: for Antagonist activity on PqsR (in words): pqsA'-lux reporter; for IC50: Figure 6 (QZNs), P. aeruginosa wild type strain with miniCTX::pqsA'-lux fusion, read-out: Antagonist IC50±SD
PqsR [3] = target: T1, PqsR; design: assayed for their agonist and antagonist activities in a whole P. aeruginosa bacterial cell assay; endogenous in cells; host or cells: P. aeruginosa PAO1 wild type, ΔpqsA or ΔpqsAH strains carrying a chromosomal (mini)CTX::pqsA'-lux fusion; method as in PMID 17922753; details: cited from earlier work; for Activation of PqsR (in words): dependence on alkyl chain length
PqsR Leu207Glu = PqsR Leu207Glu (Pseudomonas aeruginosa, UniProt Q9I4X0, L207E); assay: Response of PqsR-6His ligand binding site variants to PQS and HHQ, pqsA'-lux in ΔpqsA ΔpqsH ΔpqsR strain; type: cell-based; details: Leu207Glu mutation; co-inducer 40 µM
PqsR [4] = target: T1, PqsR; assay: cell-based; design: assayed for their agonist and antagonist activities in a whole P. aeruginosa bacterial cell assay; endogenous in cells; host or cells: P. aeruginosa PAO1 wild type, ΔpqsA or ΔpqsAH strains carrying a chromosomal (mini)CTX::pqsA'-lux fusion; details: Figure 2 (AQs); P. aeruginosa ΔpqsAH CTX::pqsA'-lux strain; read-out: Agonist EC50 ±SD
P. aeruginosa = assay: Bacterial growth in the reporter assays; type: cell-based, Pseudomonas aeruginosa
Method: The impact of the AQs and QZNs on PqsR-dependent gene expression in P. aeruginosa was evaluated using lux-based pqsA, lecA and phzA1 promoter fusions (Table S1) in 96-well microtiter plates as described before,[23]. Bioluminescence and bacterial growth were quantified using a combined luminometer-spectrometer (Tecan GENios Pro). Where required, AQs or QZNs were added to reporter strains and EC50 or IC50 values were extracted from the sigmoidal dose–response curves obtained using Prism2 (Graphpad, San Diego, USA).

[5] = MeOH stock at a workable concentration
[6] = Figure 2 (AQs), P. aeruginosa ΔpqsA CTX::pqsA'-lux strain, read-out: Agonist EC50 ±SD
[7] = Figure 6 (QZNs), P. aeruginosa ΔpqsA miniCTX::pqsA'-lux strain, read-out: Agonist EC50±SD

## Nc1cc(Cl)ccc1C(=O)O [4-CABA, 2-amino-4-chorobenzoic acid]
AQ biosynthesis
  Concentrations required to inhibit AQ production: millimolar range

## CCCCCCCc1[nH]c2ccccc2c(=O)c1N [5a]
PqsR [1]; [6]
  EC50: 0.4 ± 0.15 µM

## CCCCCCCCCc1nc2cc(F)ccc2c(=O)[nH]1 [7F-C9-QZN]
PqsR [1]
  Agonist activity on PqsR (in words): devoid of agonist or antagonist activity
PqsR [1]; listed as 8
  Agonist activity on PqsR (in words): partial agonists
PqsR [2]
  Antagonist activity on PqsR (in words): devoid of agonist or antagonist activity

## CCCCCCCc1nc2ccccc2c(=O)[nH]1 [C7-QZN]
PqsR [1]
  Agonist activity on PqsR (in words): devoid of agonist or antagonist activity
PqsR [2]
  Antagonist activity on PqsR (in words): devoid of agonist or antagonist activity

## CCCCCCCCCc1nc2ccccc2c(=O)[nH]1 [C9-QZN]
PqsR [1]
  Agonist activity on PqsR (in words): devoid of agonist or antagonist activity
PqsR [2]
  Antagonist activity on PqsR (in words): devoid of agonist or antagonist activity

## CCCCCCCc1cc(O)c2ccccc2n1 [compound 2, 2-heptyl-4-hydroxyquinoline]
PqsR [1]; [6]
  EC50: 0.8 ± 0.3 µM
PqsR [3]; whole P. aeruginosa cell assays
  EC50 for PqsR-dependent activation of pqsA: low micromolar range
PqsR Leu207Glu
  Response, % of pqsA promoter activity with respect to strain expressing PqsR-6His: 5%
PqsR [4]
  EC50: 16.4 ± 2.6 µM

## CCCCCCCCCc1cc(O)c2ccccc2n1 [compound 3, 2-nonyl-4-hydroxyquinoline]
PqsR [1]; [6]
  EC50: 0.4 ± 0.1 µM
PqsR [3]
  Activation of PqsR (in words): highly active
PqsR [4]
  EC50: 2.5 ± 1.5 µM

## CCCCCCCCCc1[nH]c2ccccc2c(=O)c1O [compound 4, 2-nonyl-3-hydroxy-4(1H)-quinolone]
PqsR [1]; [6]
  EC50: 1.1 ± 0.5 µM
PqsR [3]
  Activation of PqsR (in words): highly active
PqsR [4]
  EC50: 9.1 ± 11.2 µM

## CCCCCCCc1[nH]c2cc(Cl)ccc2c(=O)c1O [compound 5]
PqsR [1]; [6]
  EC50: 0.014 ± 0.005 µM
PqsR [1]; in P. aeruginosa, from Figure 2 EC50s
  Agonist potency relative to PQS: ~135 times

## CCCCCCCc1nc2ccccc2c(=O)n1O [compound 9]
PqsR [1]; [7]
  EC50: 54 ± 6.6 µM
PqsR [1]
  Agonist activity on PqsR (in words): partial agonists

## CCCCCCCCCc1nc2ccccc2c(=O)n1O [compound 10]
PqsR [1]; [7]
  EC50: 30 ± 3.8 µM

## CCCCCCCCCc1nc2cc(Cl)ccc2c(=O)n1O [compound 11]
PqsR [1]; [7]
  EC50: 12.7 ± 7.8 µM

## CCCCCCCCCc1nc2cc(F)ccc2c(=O)n1O [compound 12]
PqsR [1]; [7]
  EC50: 21 ± 5.5 µM
PqsR [1]
  Agonist activity on PqsR (in words): totally devoid of agonist activity

## CCCCCCCc1nc2ccccc2c(=O)n1OC [compound 13]
PqsR [1]
  Agonist activity on PqsR (in words): inactive; also recorded: totally devoid of agonist activity

## CCCCCCCCCc1nc2ccccc2c(=O)n1OC [compound 14]
PqsR [1]
  Agonist activity on PqsR (in words): inactive

## CCCCCCCCCc1nc2cc(Cl)ccc2c(=O)n1OC [compound 15]
PqsR [1]; [7]
  EC50: 37.3 ± 6.5 µM

## CCCCCCCCCc1nc2cc(F)ccc2c(=O)n1OC [compound 16]
PqsR [1]; [7]
  EC50: 2.2 µM

## CCCCCCCCCc1nc2cc(F)c(F)cc2c(=O)n1OC [compound 17]
PqsR [1]; [7]
  EC50: 53.6 ± 13.7 µM
PqsR [1]; second fluorine introduced
  Reduction of agonist potency relative to 3-OMe-7F-C9-QZN: ~25 fold

## CCCCCCCc1nc2ccccc2c(=O)n1N [compound 19]
PqsR [1]
  Agonist activity on PqsR (in words): None of these compounds were agonists
PqsR [2]
  IC50: 54 ± 15.5 µM

## CCCCCCCCCc1nc2ccccc2c(=O)n1N [compound 20]
PqsR [1]
  Agonist activity on PqsR (in words): None of these compounds were agonists
PqsR [2]
  IC50: 77.2 ± 1 µM

## CCCCCCCCCCCc1nc2ccccc2c(=O)n1N [compound 21]
PqsR [1]
  Agonist activity on PqsR (in words): None of these compounds were agonists
PqsR [2]
  IC50: 210 ± 77 µM

## CCCCCCCCCc1nc2ccc(Cl)cc2c(=O)n1N [compound 22]
PqsR [2]
  Antagonist activity on PqsR (in words): complete loss of antagonist activity

## CCCCCCCCCc1nc2cc(F)ccc2c(=O)n1N [compound 25]
PqsR [2]
  IC50: 3.9 ± 1.5 µM

## CCCCCCCCCc1nc2cc(F)c(F)cc2c(=O)n1N [compound 26]
PqsR [2]
  IC50: 1.2 ± 0.4 µM

## CCCCCCCCCc1nc2cc(C(F)(F)F)ccc2c(=O)n1N [compound 27]
PqsR [2]
  Antagonist activity on PqsR (in words): complete loss of activity

## CCCCCCCCCc1nc2cc(OC)c(OC)cc2c(=O)n1N [compound 28]
PqsR [2]
  Antagonist activity on PqsR (in words): inactive

## CCCCCC(C)CCc1nc2ccccc2c(=O)n1N (stereo not shown) [compound 29]
PqsR [2]
  Antagonist activity on PqsR (in words): all inactive

## CC(C)CCCCCCc1nc2ccccc2c(=O)n1N [compound 30]
PqsR [2]
  Antagonist activity on PqsR (in words): all inactive

## CCCCOCCOCc1nc2ccccc2c(=O)n1N [compound 32]
PqsR [2]
  Antagonist activity on PqsR (in words): all inactive

## CCCCCCCCCc1nc2ccccc2c(=O)n1NC(C)=O [compound 33]
PqsR [2]
  Antagonist activity on PqsR (in words): inactive or weak antagonists

## CCCCCCCCCc1nc2ccccc2c(=O)n1CCN [compound 35]
P. aeruginosa
  Growth inhibition: exhibited growth inhibition
PqsR [2]
  Antagonist activity on PqsR (in words): inactive or weak antagonists
other
  melting point: 77 to 81 °C

## CCCCCCCCCc1nc2ccc(Cl)cc2c(=O)n1CCN [compound 36]
P. aeruginosa
  Growth inhibition: exhibited growth inhibition
other
  melting point: 72 to 74 °C

## CCCCCCCCCc1nc2cc(Cl)ccc2c(=O)n1CCN [compound 37]
P. aeruginosa
  Growth inhibition: exhibited growth inhibition
other
  melting point: 69 to 72 °C

## CCCCCCCCCc1nc2cc(Cl)ccc2c(=O)n1CCCN [compound 38]
P. aeruginosa
  Growth inhibition: exhibited growth inhibition
other
  melting point: 82 to 95 °C

## NCCn1c(CCCc2ccccc2)nc2cc(Cl)ccc2c1=O [compound 39]
P. aeruginosa
  Growth inhibition: exhibited growth inhibition
PqsR [2]
  IC50: 79.2 ± 2.7 µM

## Nn1c(CCCc2ccccc2)nc2cc(Cl)ccc2c1=O [compound 41]
PqsR [2]
  IC50: 39.6 ± 11 µM

## Nn1c(CCc2c[nH]c3ccccc23)nc2cc(Cl)ccc2c1=O [compound 43]
[5]
  Solubility (in words): did not dissolve in MeOH at a workable concentration

## Nn1c(Cc2ccc(-c3ccccc3)cc2)nc2cc(Cl)ccc2c1=O [compound 44]
[5]
  Solubility (in words): did not dissolve in MeOH at a workable concentration

## Nn1c(CCCC2CCCCC2)nc2ccccc2c1=O [compound 46]
[5]
  Solubility (in words): barely soluble

## CCCCCCCCCc1nc2ncccc2c(=O)n1N [compound 47]
PqsR [2]
  Antagonist activity on PqsR (in words): complete loss of activity

— publication PMC3723537, “Structural Basis for Native Agonist and Synthetic Inhibitor Recognition by the Pseudomonas aeruginosa Quorum Sensing Regulator PqsR (MvfR)” (PLoS Pathogens, 2013)
